Source: US20250368626A1, “SOLID FORMS OF 2-(3,5-DICHLORO-4-((5-ISOPROPYL-6-OXO-1,6-DIHYDROPYRIDAZIN-3-YL)OXY)PHENYL)-3,5-DIOXO-2,3,4,5-TETRAHYDRO-1,2,4-TRIAZINE-6-CARBONITRILE” (Madrigal Pharmaceuticals, Inc., priority 2018, published 2025)
Values after ≈ are worked out from the molar mass of the structure shown.

Experiments:
[1] = Kinetic and thermodynamic solubility of Compound A and the glutaric acid co-crystal in FaSSGF, FaSSIF and water at 37° C. (HPLC); format: physicochemical; settings: for solubility at 1 h / solubility at 24 h / Solubility: 37° C.; for pH: pH of the slurry; for XRPD after slurry: solid form after slurry
Method: The kinetic and thermodynamic solubility of the glutaric acid co-crystal was assessed in simulated fasted state gastric and intestinal fluids (FaSSGF and FaSSIF) and also in water. The pH of the system was also measured. The solubility assessment was also performed on Compound A for comparison. […] Samples were collected after 24 hours for equilibrium solubility measurement.

[2] = Solubility of salts of Compound A in FaSSGF, FaSSIF and water at 37° C.; settings: for Solubility: 37° C.
[3] = Stability of the co-crystal at 75% RH at 40° C. for 1 week; format: physicochemical
[4] = Dynamic vapor sorption (DVS) of the glutaric acid co-crystal; format: physicochemical
Text: FIG. 83 is a dynamic vapor sorption (DVS) isotherm of the glutaric acid co-crystal of Compound A showing a total mass gain of 1.12% by weight between 2% and 95% relative humidity environments.
No difference in the XRPD pattern was seen after the DVS analysis, the XRPD patterns before and after DVS analysis are shown in FIG. 84.

[5] = Physical form stability of scaled-up salts at 75% relative humidity for 1 week; format: physicochemical
[6] = solid after solubility test in FaSSGF, by XRPD
[7] = Water, value of the 100X dil sample

CC(C)c1cc(Oc2c(Cl)cc(-n3nc(C#N)c(=O)[nH]c3=O)cc2Cl)n[nH]c1=O [Form A, 2-(3,5-dichloro-4-((5-isopropyl-6-oxo-1,6-dihydropyridazin-3-yl)oxy)phenyl)-3,5-dioxo-2,3,4,5-tetrahydro-1,2,4-triazine-6-carbonitrile]
solubility at 1 h ([1]; fassgf or other biorelevant, thermodynamic from solid, FaSSGF, Kinetic-1 hour): 1.1 µg/mL (≈ 2.53 µM) | solubility at 24 h ([1]; pH 1.67, fassgf or other biorelevant, thermodynamic from solid, FaSSGF, Equilibrium-24 hours): 1.1 µg/mL (≈ 2.53 µM) | solubility at 24 h ([1]; pH 6.44, thermodynamic from solid, FaSSIF, Equilibrium-24 hours): 552 µg/mL (≈ 1270 µM) | solubility at 24 h ([1]; pH 6.57, thermodynamic from solid, Water, Equilibrium-24 hours): 193 µg/mL (≈ 443 µM) | pH ([1]; FaSSGF, Equilibrium-24 hours): 1.67 | pH ([1]; FaSSIF, Equilibrium-24 hours): 6.44 | pH ([1]; Water, Equilibrium-24 hours): 6.57 | XRPD after slurry ([1]; FaSSGF, Equilibrium-24 hours): Form-A | XRPD after slurry ([1]; FaSSIF, Equilibrium-24 hours): Form-A | XRPD after slurry ([1]; Water, Equilibrium-24 hours): Dihydrate | solubility at 1 h ([1]; thermodynamic from solid, FaSSIF, Kinetic-1 hour): 490 µg/mL (≈ 1120 µM) | solubility at 1 h ([1]; thermodynamic from solid, Water, Kinetic-1 hour): 25.9 µg/mL (≈ 59.5 µM)

CC(C)c1cc(Oc2c(Cl)cc(-n3nc(C#N)c(=O)[nH]c3=O)cc2Cl)n[nH]c1=O [Free form Anhydrous]
Solubility ([2]; FaSSGF): 0.1 mg/mL | Solubility ([2]; FaSSIF): 4.5 mg/mL | Solubility ([2]; Water): 0.2 mg/mL

CC(C)c1cc(Oc2c(Cl)cc(-n3nc(C#N)c(=O)[nH]c3=O)cc2Cl)n[nH]c1=O.O.O [Free form dihydrate]
Solubility ([2]; FaSSGF): 0.0067 mg/mL | Solubility ([2]; FaSSIF): 2.9 mg/mL | Solubility ([2]; Water): 0.1 mg/mL

CC(C)c1cc(Oc2c(Cl)cc(-n3nc(C#N)c(=O)[nH]c3=O)cc2Cl)n[nH]c1=O.O=C(O)CCCC(=O)O [Glutaric acid co-crystal]
stability [3]: stable | hygroscopicity ([4]; DVS, 2% to 95% RH): not hygroscopic | mass gain (DVS) ([4]; between 2% and 95% relative humidity, by weight): 1.12% | XRPD pattern after DVS analysis compared with the starting material ([4]; listed as co-crystal): No difference | XRPD pattern after DVS analysis compared with the starting material ([4]; listed as glutaric acid co-crystal): no change was observed | Solubility ([1]; FaSSGF, Equilibrium-24 hours): 1 µg/mL | Solubility ([1]; FaSSGF, Kinetic-1 hour): 0.1 µg/mL | Solubility ([1]; FaSSIF, Equilibrium-24 hours): 478.1 µg/mL | Solubility ([1]; FaSSIF, Kinetic-1 hour): 239.9 µg/mL | Solubility ([1]; Water, Equilibrium-24 hours): 1.6 µg/mL | Solubility ([1]; Water, Kinetic-1 hour): 0.3 µg/mL | pH ([1]; FaSSGF, Equilibrium-24 hours): 1.66 | pH ([1]; FaSSIF, Equilibrium-24 hours): 6.31 | pH ([1]; Water, Equilibrium-24 hours): 4.27 | XRPD after slurry ([1]; FaSSGF, Equilibrium-24 hours): Dihydrate | XRPD after slurry ([1]; FaSSIF, Equilibrium-24 hours): Dihydrate | XRPD after slurry ([1]; Water, Equilibrium-24 hours): Dihydrate

CC(C)c1cc(Oc2c(Cl)cc(-n3nc(C#N)c(=O)[n-]c3=O)cc2Cl)n[nH]c1=O.CC(C)c1cc(Oc2c(Cl)cc(-n3nc(C#N)c(=O)[n-]c3=O)cc2Cl)n[nH]c1=O.[Ca+2] [Hemi Ca]
Solubility ([2]; FaSSGF): 0.0025 mg/mL | Solubility ([2]; FaSSIF): 0.80 mg/mL | Solubility ([2]; Water): 0.32 mg/mL | Resulting form ([2]; after solubility test in Water): Dihydrate | Resulting form [2, 6]: Dihydrate | physical form stability compared with starting solids [5]: changes were observed

CC(C)c1cc(Oc2c(Cl)cc(-n3nc(C#N)c(=O)[n-]c3=O)cc2Cl)n[nH]c1=O.[K+] [K]
Solubility ([2]; FaSSGF): 0.0012 mg/mL | Solubility ([2]; FaSSIF): 2.72 mg/mL | Solubility ([2]; Water): > 21.3 mg/mL | Solubility [2, 7]: 0.21 mg/mL | Resulting form ([2]; after solubility test in Water): Clear solution | Resulting form [2, 6]: Dihydrate

CC(C)c1cc(Oc2c(Cl)cc(-n3nc(C#N)c(=O)[n-]c3=O)cc2Cl)n[nH]c1=O.[Na+] [Na]
Solubility ([2]; FaSSGF): 0.0008 mg/mL | Solubility ([2]; FaSSIF): 2.50 mg/mL | Solubility ([2]; Water): > 25 mg/mL | Solubility [2, 7]: 0.25 mg/mL | Resulting form ([2]; after solubility test in Water): Clear solution | Resulting form [2, 6]: Dihydrate
